What was measured:
[1] = target: T1, CYP2B10 (Mus musculus, UniProt P12791); test: Pesticides screening using CYP2B10 inhibition assay (MOBFC fluorescence, Example 1); format: biochemical; set-up: purchased Cypex Limited; bacterial membranes, E. coli by own knowledge; details: 15 pmol/mL CYP2B10, 10 μM MOBFC, 10% acetonitrile standard; for I (%) at 200 μg/L: 200 μg/L pesticide; for I (%) at 400 μg/L: 400 μg/L pesticide
T1 sequence (P12791 1-491 isoform P12791-2 L55F/V178I/R251K/K253R/N280H/A281T/V298A/H308R/T321A/S349T/L376M/Q412H/S444N): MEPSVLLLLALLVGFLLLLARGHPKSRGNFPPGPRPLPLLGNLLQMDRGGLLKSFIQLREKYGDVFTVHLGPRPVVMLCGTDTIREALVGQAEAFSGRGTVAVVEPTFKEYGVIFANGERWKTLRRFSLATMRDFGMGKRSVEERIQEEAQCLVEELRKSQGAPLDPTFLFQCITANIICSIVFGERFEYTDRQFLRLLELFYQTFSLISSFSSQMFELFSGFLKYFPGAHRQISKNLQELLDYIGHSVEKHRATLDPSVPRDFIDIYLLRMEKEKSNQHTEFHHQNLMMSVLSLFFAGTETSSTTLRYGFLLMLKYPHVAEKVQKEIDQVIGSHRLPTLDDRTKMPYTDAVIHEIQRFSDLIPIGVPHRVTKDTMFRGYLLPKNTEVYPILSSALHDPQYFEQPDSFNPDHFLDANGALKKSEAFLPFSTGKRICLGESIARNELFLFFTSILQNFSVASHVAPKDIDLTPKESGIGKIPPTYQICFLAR
Protocol: An inhibition assay was performed using the enzyme CYP2B10 by contacting it to 200 μg/L and 400 μg/L of chlorpyrifos-ethyl, chlorpyrifos-methyl, prochloraz, diazinon and dicofol.

[2] = target: T1, CYP2B10; test: CYP2B10 assay on extracts of spiked mushrooms, validation (Example 7); details: mushroom spiked at 0.01 mg/kg, extracted; 15 pmol/mL CYP2B10; 10 μM MOBFC; triplicates over seven days
Protocol: The bioassay was performed in 500 μL tubes and in triplicate. 50 μL of extract was added to the tubes. Enzyme mixture was prepared following the protocols provided by the manufacturer (Cypex Limited) and consisted of 15 pmol/ml of CYP2B10 Bactosomes in the assay buffer: 75 mM potassium phosphate supplemented with 5 mM MgCl2, pH=8.0, containing 333 mM Glucose-6-phosphate and 30 U/mL Glucose-6-phosphate dehydrogenase. After the preparation, 50 μL of enzyme mixture were added to each tube. After reach room temperature 10 μL of substrate mixture (10 μM MOBFC and 30 μM NADP^+ diluted in potassium phosphate buffer 50 mM) was added to each tube. The tubes were incubated 60 minutes at 37° C. and when time passed, fluorescence signal was measured with a fluorometric reader, 370 nm and 520 nm were the excitation and emission wavelengths, respectively. A blank sample, buffer solution, was measured at the same time and the reduction of the signal, inhibition of enzyme activity, was calculated and associated with the presence of pesticide molecules.
The validation was carried out during seven days, comparing the signal obtained for triplicate samples of blank and doped mushroom.

[3] = target: T2, CYP2B11 (Canis lupus familiaris, UniProt P24460); test: Pesticides screening using CYP2B11 inhibition assay (BOMCC fluorescence, Example 4); details: 400 μg/L pesticide; 5 pmol/mL CYP2B11; 3 μM BOMCC
T2 sequence (P24460 1-494): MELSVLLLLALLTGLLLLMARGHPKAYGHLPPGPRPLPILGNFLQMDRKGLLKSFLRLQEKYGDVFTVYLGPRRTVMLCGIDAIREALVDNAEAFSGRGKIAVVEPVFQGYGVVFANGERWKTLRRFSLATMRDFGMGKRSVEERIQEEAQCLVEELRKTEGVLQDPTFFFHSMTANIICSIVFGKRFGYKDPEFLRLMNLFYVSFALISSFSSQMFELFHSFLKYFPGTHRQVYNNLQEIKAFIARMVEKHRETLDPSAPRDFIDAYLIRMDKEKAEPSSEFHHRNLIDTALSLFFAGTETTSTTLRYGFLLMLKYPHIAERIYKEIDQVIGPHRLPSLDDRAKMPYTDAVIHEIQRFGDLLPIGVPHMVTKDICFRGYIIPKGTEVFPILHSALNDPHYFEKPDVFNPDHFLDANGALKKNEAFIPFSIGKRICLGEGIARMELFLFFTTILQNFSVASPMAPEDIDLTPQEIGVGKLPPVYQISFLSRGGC
Protocol: This assay was performed in a 96-well plate by adding 50 μL of chemical standard of pesticides in duplicate, previously prepared in assay buffer with 5% acetonitrile. Enzyme mixture consisted of 5 pmol/mL CYP2B11 (Cypex Limited) in the assay buffer: 75 mM potassium phosphate supplemented with 5 mM MgCl2, pH=8.0, containing 333 mM Glucose-6-phosphate and 30 U/mL Glucose-6-phosphate dehydrogenase. After preparation, 50 μL of enzyme mixture were added to each plate and incubated for 10 minutes at 37° C. After incubation, 10 μL of a substrate mixture containing 30 μM NADP^+ and 3 μM BOMCC in the phosphate buffer was added to the wells. The plate was incubated for 60 minutes at 37° C., and the fluorescence was monitored using 410/460 nm as excitation and emission wavelengths, respectively. A blank sample containing buffer solution was measured in same conditions and used to calculate the inhibition of the enzyme activity that was associated with the presence of pesticides concentration.

[4] = target: T3, Dog CYP2B11 (Canis lupus familiaris, UniProt P24460); test: Metrafenone inhibition assay on CYP2B11 (Example 5); format: biochemical; details: 500 μg/L metrafenone; CYP2B11 5 pmol/mL; BOMCC 3 μM
T3 construct: purchased Cypex Limited; host or cells: bactosomes (bacterial membranes; E. coli by own knowledge)
T3 sequence (P24460 1-494): T2 sequence (P24460 1-494)
Protocol: (§1) This assay was performed in a 96-well plate by adding 50 μL of 500 μg/L of metrafenone chemical standard to wells in duplicate, previously prepared in assay buffer with 5% acetonitrile. CYP2B11 enzyme mixture consisted of 5 pmol/mL Dog CYP2B11 bactosomes (Cypex Limited) in the assay buffer: 75 mM potassium phosphate supplemented with 5 mM MgCl2, pH=8.0, containing 333 mM Glucose-6-phosphate and 30 U/mL Glucose-6-phosphate dehydrogenase. CYP2B6 enzyme mixture consisted of 2.5 pmol/ml of Vivid® Human CYP2B6 baculosomes (Thermofisher Scientific) in the assay buffer: 75 mM potassium phosphate, pH=8.0, containing 333 mM Glucose-6-phosphate and 30 U/mL Glucose-6-phosphate dehydrogenase.
(§2) After preparation, 50 μL of each enzyme mixture were added to each plate and incubated for 10 minutes at 37° C. After incubation, 10 μL of a substrate mixture containing 30 μM NADP^+ and 3 μM BOMCC in the phosphate buffer was added to the wells. The plate was incubated for 60 minutes at 37° C., and the fluorescence was monitored using 410/460 nm as excitation and emission wavelengths, respectively. A blank sample containing buffer solution was measured in same conditions and used to calculate the inhibition percentage of the activity of the enzymes in presence of the pesticide metrafenone.

[5] = target: T4, Human CYP2B6 (Homo sapiens, UniProt P20813); test: Metrafenone inhibition assay on human CYP2B6 (Example 5); format: biochemical; details: 500 μg/L metrafenone; CYP2B6 2.5 pmol/mL; BOMCC 3 μM
T4 construct: purchased Thermofisher Scientific; host or cells: baculosomes (microsomes of baculovirus-infected insect cells, by own knowledge)
T4 sequence (P20813 1-491): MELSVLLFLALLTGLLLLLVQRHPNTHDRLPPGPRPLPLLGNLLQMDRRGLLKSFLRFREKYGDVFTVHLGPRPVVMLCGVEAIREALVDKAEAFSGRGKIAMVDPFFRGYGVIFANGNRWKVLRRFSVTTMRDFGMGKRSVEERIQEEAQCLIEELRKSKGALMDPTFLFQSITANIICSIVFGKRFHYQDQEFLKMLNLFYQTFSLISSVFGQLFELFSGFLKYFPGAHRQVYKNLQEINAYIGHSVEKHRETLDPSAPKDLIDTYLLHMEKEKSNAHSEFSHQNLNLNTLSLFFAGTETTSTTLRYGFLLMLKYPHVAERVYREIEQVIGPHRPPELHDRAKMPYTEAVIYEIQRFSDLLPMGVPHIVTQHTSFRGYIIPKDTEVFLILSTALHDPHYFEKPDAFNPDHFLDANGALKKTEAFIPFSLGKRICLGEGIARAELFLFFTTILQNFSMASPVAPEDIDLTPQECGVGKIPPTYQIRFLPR
Protocol: as §1, §2

[6] = target: T2, CYP2B11; test: Effect of dimethoate in CYP2B11 assay (BOMCC fluorescence, Example 2); format: biochemical; set-up: purchased Cypex Limited; details: dog, CYP2B11 enzyme (Cypex Limited), pH 8, probe BOMCC (3 μM in substrate mixture); 2 mg/L dimethoate; 10 pmol/mL CYP2B11; 3 μM BOMCC
Description: Considering the inhibition percentage determined, it is possible to confirm that CYP2B11 enzyme is susceptible to be inhibited by dimethoate pesticide.

[7] = target: T1, CYP2B10; test: CYP2B10 inhibition assay with MOBFC/MOFC reporter substrate mixes (Example 3); format: biochemical; set-up: purchased Cypex Limited; bacterial membranes, E. coli by own knowledge; details: 400 μg/L dicofol
Protocol: The enzyme CYP2B10 was exposed to 400 μg/L of dicofol pesticide, and the inhibition percentage was registered when reporter substrate concentration and composition was changed.

COP(=S)(OC)Oc1nc(Cl)c(Cl)cc1Cl [Chlorpyrifos-methyl]
I (%) at 200 μg/L [1]: 49.5% | I (%) at 400 μg/L [1]: 77.9% | Average I (%) [2]: 46.8% | I(%) [3]: 96.0%

CC12CC1(C)C(=O)N(c1cc(Cl)cc(Cl)c1)C2=O (stereo not drawn) [Procymidone]
I(%) [3]: 24.5%

CCCC(Cn1cncn1)c1ccc(Cl)cc1Cl (stereo not drawn) [Penconazole]
I(%) [3]: 87.8%

N#Cc1c(Cl)c(Cl)c(Cl)c(C#N)c1Cl [Chlorothalonil]
I(%) [3]: 62.3%

COc1cc(C)c(C(=O)c2c(OC)ccc(Br)c2C)c(OC)c1OC [metrafenone]
I(%) [4]: 35.2% | I(%) [5]: 0.0%

CCOP(=S)(OCC)Oc1cc(C)nc(C(C)C)n1 [Diazinon]
I(%) [3]: 84.1%

Clc1ccc(C(c2ccc(Cl)cc2)C(Cl)(Cl)Cl)cc1 [DDT]
I(%) [3]: 70.7%

CC(C)NC(=O)N1CC(=O)N(c2cc(Cl)cc(Cl)c2)C1=O [Iprodione]
I(%) [3]: 15.9%

CNC(=O)CSP(=S)(OC)OC [dimethoate]
inhibition at 60 min, 2 mg/L [6]: 56.8%

OC(c1ccc(Cl)cc1)(c1ccc(Cl)cc1)C(Cl)(Cl)Cl [Dicofol]
I(%) ([7]; MOBFC 0.0 μM, MOFC 10.0 μM): 72.9% | I(%) ([7]; MOBFC 2.0 μM, MOFC 8.0 μM): 50.6% | I(%) ([7]; MOBFC 3.3 μM, MOFC 6.6 μM): 37.4% | I(%) ([7]; MOBFC 5.0 μM, MOFC 5.0 μM): 24.3% | I(%) ([7]; MOBFC 10.0 μM, MOFC 0.0 μM): 16.8% | I (%) at 200 μg/L [1]: 19.0% | I (%) at 400 μg/L [1]: 30.6% | I(%) [3]: 79.0%

CCCN(CCOc1c(Cl)cc(Cl)cc1Cl)C(=O)n1ccnc1 [Prochloraz]
I (%) at 200 μg/L [1]: 60.3% | I (%) at 400 μg/L [1]: 72.0% | Average I (%) [2]: 54.2% | I(%) [3]: 94.6%

CC1(C)C(C=C(Cl)Cl)C1C(=O)OC(C#N)c1cccc(Oc2ccccc2)c1 (stereo not drawn) [Cypermethrin]
I(%) [3]: 17.5%

CCOP(=S)(OCC)Oc1nc(Cl)c(Cl)cc1Cl [Chlorpyrifos-ethyl]
I (%) at 200 μg/L [1]: 26.8% | I (%) at 400 μg/L [1]: 46.8% | I(%) [3]: 94.2%

Fc1ccc(Oc2ccnc3cc(Cl)cc(Cl)c23)cc1 [Quinoxyfen]
I(%) [3]: 18.1%

— patent US20240175069A1, “BIOSYSTEM FOR PESTICIDE DETECTION” (priority 2022, published 2024)
